Literature values as cited in US20130210624A1, “COMPOSITION FOR IMPROVING PLANT HEALTH AND METHOD OF APPLYING SAME” (priority 2012, published 2013).

Tested on: oranges
Details: single prebloom foliar application; Albrigo 1999

phosphite
flower number: increased flower number
yield: increased yield
